Experimental data taken from patent publication US20210070747A1, “2(1H)-QUINOLINONE DERIVATIVE” (priority 2017, published 2021).
Converted amounts (≈) assume the structure as drawn. Counter-ions that a name gives are not always drawn. Like-named read-outs stand apart in the source and are kept apart here.

Key:
E. coli DNA gyrase = biological target: T1, E. coli DNA gyrase (Escherichia coli, UniProt P0AES6); assay: Test for evaluating the activity of inhibiting E. coli DNA gyrase enzyme (Method 1, supercoiling, Inspiralis enzyme); assay type: biochemical
T1 construct: made in house; host or cells: E. coli BL21 (DE3)
Method: Test Example 1-1 Test for Evaluating the Activity of Inhibiting E. coli DNA Gyrase Enzyme (Method 1)
The enzymatic activity of E. coli DNA gyrase was measured by a method comprising reacting DNA gyrase and its substrate, relaxed pBR322 (Inspiralis), in the presence of ATP and detecting the post-reaction supercoiled pBR322/relaxed pBR322 ratio with H19 (Profoldin).
Specifically, to 1 ng/μL of relaxed pBR322, E. coli DNA gyrase enzyme (Inspiralis) was added at a final concentration of 0.006 U/μL and the mixture was incubated for 60 minutes at room temperature. This reaction was carried out in 20 mmol/L tris-HCl buffered solution (pH 8.0) comprising 0.5 mmol/L ATP, 0.005% bridge 35, 35 mmol/L ammonium acetate, 8 mmol/L magnesium chloride, 4.6% glycerol, and 1 mmol/L dithiothreitol. To the reaction mixture, H19 was added to bring the reaction to an end; thereafter, the supercoiled pBR322/relaxed pBR322 ratio was detected at excitation wavelength/emission wavelength=485 nm/535 nm. An inhibition curve was obtained by allowing the analyte compound to be present at varying concentrations during the reaction described above. […] The test results of interest are shown in [Table 20-1] and [Table 20-2].

E. Coli ATCC 25922 = assay: Test for evaluating antibacterial activity (E. coli), broth microdilution MIC; assay type: cell-based; details: Escherichia coli, ATCC25922; 35° C., 18 hours, cation-adjusted Mueller-Hinton medium
Procedure, shortened: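 Broth microdilution per modified CLSI method in cation-adjusted Mueller-Hinton medium. Inoculum from overnight heart infusion agar growth, McFarland 0.5 suspension diluted 10-fold; incubation 35° C for 18 hours. MIC taken as lowest drug concentration with no visible growth.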

[1] = Method 1, read-out: E. Coli Gyrase supercoiling IC50

Structure (SMILES)	IC50 (E. coli DNA gyrase; [1])	MIC (E. Coli ATCC 25922)	IC50 (E. coli DNA gyrase)
CNc1cccc2cc(C(=O)Nc3cccnc3)c(=O)[nH]c12 [Example 15, 8-(methylamino)-2-oxo-N-(pyridine-3-yl)-1,2-dihydroquinoline-3-carboxamide]	35.9 nM	> 64 µg/mL	
CNc1cccc2cc(C(=O)Nc3cnc(C(=O)O)nc3)c(=O)[nH]c12 [Example 20, 5-{[8-(methylamino)-2-oxo-1,2-dihydroquinoline-3-carbonyl]amino}pyrimidine-2-carboxylic acid]	1.19 nM	> 16 µg/mL	
CNc1cccc2cc(C(=O)NC3CCN(c4nccs4)C3)c(=O)[nH]c12 (centres unmarked) [Example 23, 8-(methylamino)-2-oxo-N-[1-(1,3-thiazole-2-yl)pyrrolidine-3-yl]-1,2-dihydroquinoline-3-carboxamide]	697 nM	> 4 µg/mL	
CNc1cccc2cc(C(=O)Nc3cnc(NC(=O)OC(C)(C)C)s3)c(=O)[nH]c12 [Example 24, tert-butyl(5-{[8-(methylamino)-2-oxo-1,2-dihydroquinoline-3-carbonyl]amino}-1,3-thiazole-2-yl)carbamate]	641 nM	> 32 µg/mL	
CNc1cccc2cc(C(=O)Nc3cnc(N)s3)c(=O)[nH]c12.Cl [Example 25, N-(2-Amino-1,3-thiazol-5-yl)-8-(methylamino)-2-oxo-1,2-dihydroquinoline-3-carboxamide-hydrochloride]		> 16 µg/mL	65.4 nM
CNc1cccc2cc(C(=O)Nc3ccc(C(=O)NCCN4CCOCC4)cc3)c(=O)[nH]c12 [Example 26, 8-(methylamino)-N-(4-{[2-(morpholine-4-yl)ethyl]carbamoyl}phenyl)-2-oxo-1,2-dihydroquinoline-3-carboxamide]	17.8 nM	> 32 µg/mL	
CNc1cccc2cc(C(=O)NCc3csc(NC(=O)OC(C)(C)C)n3)c(=O)[nH]c12 [Example 27, tert-butyl[4-({[8-(methylamino)-2-oxo-1,2-dihydroquinoline-3-carbonyl]amino}methyl)-1,3-thiazole-2-yl]carbamate]	258 nM	> 8 µg/mL	
CNc1cccc2cc(C(=O)NCCc3cccnc3)c(=O)[nH]c12 [Example 30, 8-(methylamino)-2-oxo-N-[2-(pyridine-3-yl)ethyl]-1,2-dihydroquinoline-3-carboxamide]	216 nM	> 16 µg/mL	
CNc1cccc2cc(C(=O)NCc3csc(N)n3)c(=O)[nH]c12.Cl [Example 31, N-[(2-amino-1,3-thiazole-4-yl)methyl]-8-(methylamino)-2-oxo-1,2-dihydroquinoline-3-carboxamide-hydrochloride]		> 16 µg/mL	321 nM
CNc1cccc2cc(C(=O)Nc3cnc(N4CCC(N5CCN(CCO)CC5)CC4)nc3)c(=O)[nH]c12 [Example 42, N-(2-{4-[4-(2-hydroxyethyl)piperazine-1-yl]piperidine-1-yl}pyrimidine-5-yl)-8-(methylamino)-2-oxo-1,2-dihydroquinoline-3-carboxamide]	73.6 nM	> 64 µg/mL	
CNc1cccc2cc(C(=O)Nc3ccc(C(=O)N4CCOCC4)cc3)c(=O)[nH]c12 [Example 43, 8-(methylamino)-N-[4-(morpholine-4-catbonyl)phenyl]-2-oxo-1,2-dihydroquinoline-3-carboxamide]	176 nM	> 32 µg/mL	
CNc1cccc2cc(C(=O)Nc3ccc(C(=O)O)cc3OCCN3CCN(C)CC3)c(=O)[nH]c12.Cl [Example 44, 4-{[8-(methylamino)-2-oxo-1,2-dihydroquinoline-3-carbonyl]amino}-3-[2-(4-methylpiperazine-1-yl)ethoxy] benzoic acid-hydrochloride]		> 16 µg/mL	373 nM
CNc1cccc2cc(C(=O)Nc3cnc(N4CCC(N)CC4)nc3)c(=O)[nH]c12.O=CO [Example 45, N-[2-(4-aminopiperidine-1-yl)pyrimidine-5-yl]-8-(methylamino)-2-oxo-1,2-dihydroquinoline-3-carboxamide-formate]		> 16 µg/mL	101 nM
CNc1cccc2cc(C(=O)Nc3ccc(C(=O)NCCCN)cc3)c(=O)[nH]c12.Cl [Example 46, N-{4-[(3-aminopropyl)carbamoyl]phenyl}-8-(methylamino)-2-oxo-1,2-dihydroquinoline-3-carboxamide-hydrochloride]		> 1 µg/mL	7.47 nM
CNc1cccc2cc(C(=O)Nc3ccc(C(=O)NCC4CCNCC4)cc3)c(=O)[nH]c12.O=CO [Example 47, 8-(methylamino)-2-oxo-N-(4-{[(piperidine-4-yl)methyl]carbamoyl}phenyl)-1,2-dihydroquinoline-3-carboxamide-formate]		> 32 µg/mL	10.7 nM
CNc1cccc2cc(C(=O)Nc3ccc(C(=O)O)cc3OCCCN)c(=O)[nH]c12.O=CO [Example 48, 3-(3-aminopropoxy)-4-{[8-(methylamino)-2-oxo-1,2-dihydroquinoline-3-carbonyl]amino} benzoic acid-formate]		> 16 µg/mL	286 nM
CNc1cccc2cc(C(=O)Nc3ccc(C(=O)NCCC[C@H](N)C(=O)O)cc3)c(=O)[nH]c12 [Example 49, N5-(4-{[8-(methylamino)-2-oxo-1,2-dihydroquinoline-3-carbonyl]amino}benzoyl)-L-ornithine]	20.4 nM	> 8 µg/mL	
CNc1cc(F)cc2cc(C(=O)Nc3cnc(NCCN4CCN(C)CC4)nc3)c(=O)[nH]c12 [Example 51, 6-fluoro-8-(methylamino)-N-(2-{[2-(4-methylpiperazine-1-yl)ethyl]amino}pyrimidine-5-yl)-2-oxo-1,2-dihydroquinoline-3-carboxamide]	5.46 nM	16 µg/mL (≈ 35.2 µM)	
CNc1cc(F)cc2cc(C(=O)Nc3cnc(C(=O)NCCN4CCOCC4)nc3)c(=O)[nH]c12 [Example 53, 6-fluoro-8-(methylamino)-N-(2-{[2-(morpholine-4-yl)ethyl]carbamoyl}pyrimidine-5-yl)-2-oxo-1,2-dihydroquinoline-3-carboxamide]	1.49 nM	0.25 µg/mL (≈ 0.533 µM)	
CNc1cc(F)cc2cc(C(=O)Nc3cnc(N4CCNCC4)nc3)c(=O)[nH]c12.Cl [Example 55, 6-Fluoro-8-(methylamino)-2-oxo-N-[2-(piperazin-1-yl)pyrimidin-5-yl]-1,2-dihydroquinoline-3-carboxamide-hydrochloride]		> 16 µg/mL	14.7 nM
CNc1cc(F)cc2cc(C(=O)Nc3ccc(C(=O)NCC4CCN(CCN)CC4)cc3)c(=O)[nH]c12 [Example 57, N-(4-({[1-(2-aminoethyl)piperidine-4-yl]methyl}carbamoyl)phenyl]-6-fluoro-8-(methylamino)-2-oxo-1,2-dihydroquinoline-3-carboxamide-dihydrochloride]	3.62 nM	> 16 µg/mL	
CNc1cc(F)cc2cc(C(=O)Nc3cnc(NCCN)nc3)c(=O)[nH]c12.O=CO [Example 59, N-{2-[(2-aminoethyl)amino]pyrimidine-5-yl}-6-fluoro-8-(methylamino)-2-oxo-1,2-dihydroquinoline-3-carboxamide-formate]		> 2 µg/mL	14.7 nM
CNc1cc(F)cc2cc(C(=O)Nc3cnc(N4CC(N)C4)nc3)c(=O)[nH]c12.O=CO [Example 60, N-[2-(3-aminoazetidine-1-yl)pyrimidine-5-yl]-6-fluoro-8-(methylamino)-2-oxo-1,2-dihydroquinoline-3-carboxamide-formate]		> 32 µg/mL	11.8 nM
CNc1cc(F)cc2cc(C(=O)Nc3cnc(C(=O)OC)nc3)c(=O)[nH]c12 [Example 63, methyl 5-{[6-fluoro-8-(methylamino)-2-oxo-1,2-dihydroquinoline-3-carbonyl]amino}pyrimidine-2-carboxylate]		> 16 µg/mL	1.44 nM
CNc1cc(F)cc2cc(C(=O)NCCc3cccnc3)c(=O)[nH]c12 [Example 64, 6-fluoro-8-(methylamino)-2-oxo-N-[2-(pyridine-3-yl)ethyl]-1,2-dihydroquinoline-3-carboxamide]	44.7 nM	> 8 µg/mL	
CNc1cc(F)cc2cc(C(=O)Nc3ccc(C(=O)N(C)CCN4CCOCC4)cc3)c(=O)[nH]c12 [Example 67, 6-fluoro-8-(methylamino)-N-(4-{methyl[2-(morpholine-4-yl)ethyl]carbamoyl}phenyl)-2-oxo-1,2-dihydroquinoline-3-carboxamide]	6.36 nM	> 16 µg/mL	
CNc1cc(F)cc2cc(C(=O)Nc3ccc(C(=O)NCCN)cc3)c(=O)[nH]c12.Cl [Example 68, N-(4-[(2-aminoethyl)carbamoyl]phenyl}-6-fluoro-8-(methylamino)-2-oxo-1,2-dihydroquinoline-3-carboxamide-hydrochloride]		> 8 µg/mL	9.4 nM
CNc1cc(F)cc2cc(C(=O)Nc3cnc(NCCN4CCOCC4)nc3)c(=O)[nH]c12 [Example 69, 6-fluoro-8-(methylamino)-N-(2-{[2-(morpholine-4-yl)ethyl]amino}pyrimidine-5-yl)-2-oxo-1,2-dihydroquinoline-3-carboxamide]	7 nM	8 µg/mL (≈ 18.1 µM)	
